Results as given in PubChem BioAssay AID1919003 (Molecular Pharmacology Branch, DTP, NCI, 2023).

Tested on: 786-0 complex spheroids with HUVEC/MSC, growth % test/control
Assay: Anticancer human tumor 786-0 cell line growth inhibition [AhR];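 note: compound exposure lasted seven days before the read-out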
Settings: for IC50: curve of first compound; for viability, T/C: stronger effect = lower value; active = viability on the fitted dose curve at most 10% of control; inactive = the rest
Excerpt: Multicellular complex tumor spheroid response to aryl hydrocarbon receptor antagonists in combination with a variety of drugs and investigational agents in selected tumor cell lines
The current study was undertaken to assess response to aryl hydrocarbon receptor antagonists in combination with standard-of-care drugs and investigational agents in solid tumor complex spheroid models. Complex spheroids include a stromal component modeled by human endothelial cells (HUVEC) and fibroblasts modeled by human mesenchymal stem cells (MSCs). The concentration ranges selected for each drug and investigational agent were based upon clinically achievable concentrations if the clinical Cmax of the agent was known.
Compounds. The drugs and investigational agents: BAY 2416964 (NSC825713), GNF351 (NSC835774), CH-223191 (NSC835775), CPI-455 (NSC825282), aza-TdCyd (NSC777586), decitabine (NSC127716), belinostat (NSC758774), entinostat (NSC756642), pevonedistat (NSC761192), tazemetostat (NSC777109), talazoparib (NSC765396), olaparib (NSC753686), selinexor (NSC780203), nedisertib (M3814, NSC802822), bortezomib (NSC756655), venetoclax (NSC766270), doxorubicin (NSC123127), elimusertib (BAY189344, NSC800525), ceralasertib (AZD6738, NSC777638), TAK-243 (NSC785004), alisertib (NSC759677), etoposide (NSC141540), topotecan (NSC609699), eribulin (NSC707389), gemcitabine (NSC613327), carboplatin (NSC241240), cisplatin (NSC119875), and SN-38 (NSC673596) were obtained from the National Cancer Institute (NCI) Developmental Therapeutics Program Chemical Repository (32). The FDA-approved anticancer drug set is available from the Developmental Therapeutics Program at https://dtp.cancer.gov/organization/dscb/obtaining/available plates.htm. […] The stock solutions were prepared in dimethyl sulfoxide (DMSO, Sigma-Aldrich, St. Louis, MO, cat. D2650), except for the platinum compounds which were prepared in saline (Quality Biological, Gaithersburg, MD, cat. 114-055-101), at 800-fold the tested concentration and stored at -70 degrees C prior to their use. All drugs and investigational agents were tested over a range starting from a high concentration at or near the clinical Cmax and decreasing in half-log increments. If the clinical Cmax for an agent had not been determined, the highest concentration tested was 10 microM (Table 1).
Cell Culture. All cells were maintained in an incubator at 37 degrees C and 5% CO2 with 95% humidity. The PDC lines were cultured according to standard operating procedures established by the NCI PDMR (https://pdmr.cancer.gov). Briefly, all PDCs were thawed and cultured in Matrigel-coated flasks prepared with a working solution of 1X Ham's F-12 nutrient mix, without supplementation (Invitrogen, Waltham, MA, cat. 11765054), 100 U/mL penicillin-streptomycin (Invitrogen, cat. 15140122), and 2.5% Matrigel (Corning Inc., Corning, NY, cat. 354248) for the first three passages. All PDCs were cultured in complete DMEM/F-12 media containing advanced DMEM/F-12 (Invitrogen, cat. 12634028), 4.9% defined fetal bovine serum, heat inactivated (HyClone Laboratories Inc., Logan, UT, cat. SH30070.03HI), 389 ng/mL hydrocortisone (Sigma-Aldrich, cat. H4001), 9.7 ng/mL human EGF recombinant protein (Invitrogen, cat. PHG0313), 23.4 microg/mL adenine (Sigma-Aldrich, cat. A2786), 97.3 U/mL penicillin-streptomycin (Invitrogen, cat. 15140122), 1.9 mM L-glutamine (Invitrogen, cat. 25030081), and 9.7 microM Y-27632 dihydrochloride (Tocris Bioscience, Bristol, United Kingdom, cat. 1254). The PDCs were cultured in complete DMEM/F12 media without 10 microM Y-27632 dihydrochloride for at least two passages prior to the screen. The established cell lines NCI-H1341 and […] were cultured in DMEM/F-12, HEPES (Invitrogen, cat. 11330032), 5% defined fetal bovine serum (HyClone Laboratories Inc., cat. SH30070.03), ITS premix universal culture supplement [insulin (5 microg/mL), transferrin (5 microg/mL), and selenious acid (5 ng/mL)] […]

[1] = second compound 0.1 µM, first compound 0.0316 µM
[2] = second compound 0.1 µM, first compound 0.1 µM
[3] = second compound 0.1 µM, first compound 0.316 µM
[4] = second compound 0.1 µM, first compound 1 µM
[5] = second compound 0.1 µM, first compound 3.16 µM
[6] = second compound 0.1 µM, first compound 10 µM
[7] = second compound 0.316 µM, first compound 0.0316 µM
[8] = second compound 0.316 µM, first compound 0.1 µM
[9] = second compound 0.316 µM, first compound 0.316 µM
[10] = second compound 0.316 µM, first compound 1 µM
[11] = second compound 0.316 µM, first compound 3.16 µM
[12] = second compound 0.316 µM, first compound 10 µM
[13] = second compound 1 µM, first compound 0.0316 µM
[14] = second compound 1 µM, first compound 0.1 µM
[15] = second compound 1 µM, first compound 0.316 µM
[16] = second compound 1 µM, first compound 1 µM
[17] = second compound 1 µM, first compound 3.16 µM
[18] = second compound 1 µM, first compound 10 µM
[19] = second compound 3.16 µM, first compound 0.0316 µM
[20] = second compound 3.16 µM, first compound 0.1 µM
[21] = second compound 3.16 µM, first compound 0.316 µM
[22] = second compound 3.16 µM, first compound 1 µM
[23] = second compound 3.16 µM, first compound 3.16 µM
[24] = second compound 3.16 µM, first compound 10 µM
[25] = second compound 10 µM, first compound 0.0316 µM
[26] = second compound 10 µM, first compound 0.1 µM
[27] = second compound 10 µM, first compound 0.316 µM
[28] = second compound 10 µM, first compound 1 µM
[29] = second compound 10 µM, first compound 3.16 µM
[30] = second compound 10 µM, first compound 10 µM

CC(C)CC(NC(=O)C(Cc1ccccc1)NC(=O)c1cnccn1)B(O)O (stereo not given) + Cc1cncc(-c2nc(NCCc3c[nH]c4ccccc34)c3ncn(C(C)C)c3n2)c1
active: viability, T/C (second compound 0.1 µM, first compound 0.03 µM) 5.33% | viability, T/C (second compound 0.1 µM, first compound 0.0949 µM) 0.52% | viability, T/C (second compound 0.1 µM, first compound 0.3 µM) 0.46% | viability, T/C (second compound 0.316 µM, first compound 0.03 µM) 3.15% | viability, T/C (second compound 0.316 µM, first compound 0.0949 µM) 0.85% | viability, T/C (second compound 0.316 µM, first compound 0.3 µM) 0.37% | viability, T/C (second compound 1 µM, first compound 0.03 µM) 4.16% | viability, T/C (second compound 1 µM, first compound 0.0949 µM) 0.6% | viability, T/C (second compound 1 µM, first compound 0.3 µM) 0.7% | viability, T/C (second compound 3.16 µM, first compound 0.03 µM) 1.63% | viability, T/C (second compound 3.16 µM, first compound 0.0949 µM) 0.28% | viability, T/C (second compound 3.16 µM, first compound 0.3 µM) 0.43% | viability, T/C (second compound 10 µM, first compound 0.003 µM) 16% | viability, T/C (second compound 10 µM, first compound 0.00949 µM) 2.59% | viability, T/C (second compound 10 µM, first compound 0.03 µM) 0.18% | viability, T/C (second compound 10 µM, first compound 0.0949 µM) 0.17% | viability, T/C (second compound 10 µM, first compound 0.3 µM) 0.24%
17.8 nM: IC50 (second compound 0.1 µM)
inactive: viability, T/C (second compound 0.1 µM, first compound 0.000949 µM) 136% | viability, T/C (second compound 0.1 µM, first compound 0.003 µM) 119% | viability, T/C (second compound 0.1 µM, first compound 0.00949 µM) 103% | viability, T/C (second compound 0.316 µM, first compound 0.000949 µM) 127% | viability, T/C (second compound 0.316 µM, first compound 0.003 µM) 120% | viability, T/C (second compound 0.316 µM, first compound 0.00949 µM) 118% | viability, T/C (second compound 1 µM, first compound 0.000949 µM) 102% | viability, T/C (second compound 1 µM, first compound 0.003 µM) 110% | viability, T/C (second compound 1 µM, first compound 0.00949 µM) 96.9% | viability, T/C (second compound 3.16 µM, first compound 0.000949 µM) 70.7% | viability, T/C (second compound 3.16 µM, first compound 0.003 µM) 69.3% | viability, T/C (second compound 3.16 µM, first compound 0.00949 µM) 47.8% | viability, T/C (second compound 10 µM, first compound 0.000949 µM) 10.2%
8.46 nM: IC50 (second compound 3.16 µM)
< 0.949 nM: IC50 (second compound 10 µM)
17 nM: IC50 (second compound 1 µM)
18.6 nM: IC50 (second compound 0.316 µM)

COc1cc(C2c3cc4c(cc3C(OC3OC5COC(C)OC5C(O)C3O)C3COC(=O)C23)OCO4)cc(OC)c1O (stereo not given) + Cc1cncc(-c2nc(NCCc3c[nH]c4ccccc34)c3ncn(C(C)C)c3n2)c1
1150 nM: IC50 (second compound 0.1 µM)
inactive: viability, T/C [1] 114% | viability, T/C [2] 127% | viability, T/C [3] 87% | viability, T/C [4] 49.9% | viability, T/C [5] 35.5% | viability, T/C [6] 9.86% | viability, T/C [7] 128% | viability, T/C [8] 121% | viability, T/C [9] 86.8% | viability, T/C [10] 52.9% | viability, T/C [11] 33.4% | viability, T/C [12] 7.71% | viability, T/C [13] 107% | viability, T/C [14] 117% | viability, T/C [15] 85.2% | viability, T/C [16] 53.3% | viability, T/C [17] 32.3% | viability, T/C [19] 81.3% | viability, T/C [20] 79.1% | viability, T/C [21] 56.2% | viability, T/C [22] 30.5% | viability, T/C [23] 15.8%
1320 nM: IC50 (second compound 1 µM)
< 31.6 nM: IC50 (second compound 10 µM)
1290 nM: IC50 (second compound 0.316 µM)
444 nM: IC50 (second compound 3.16 µM)
active: viability, T/C [18] 4.59% | viability, T/C [24] 2.3% | viability, T/C [25] 6.55% | viability, T/C [26] 4.82% | viability, T/C [27] 1.24% | viability, T/C [28] 0.35% | viability, T/C [29] 0.49% | viability, T/C [30] 0.43%

COc1cccc2c1C(=O)c1c(O)c3c(c(O)c1C2=O)CC(O)(C(=O)CO)CC3OC1CC(N)C(O)C(C)O1 (stereo not given) + Cc1cncc(-c2nc(NCCc3c[nH]c4ccccc34)c3ncn(C(C)C)c3n2)c1
< 31.6 nM: IC50 (second compound 3.16 µM) | IC50 (second compound 10 µM)
active: viability, T/C [4] 8.19% | viability, T/C [5] 0.99% | viability, T/C [6] 0.52% | viability, T/C [10] 7.63% | viability, T/C [11] 0.45% | viability, T/C [12] 0.37% | viability, T/C [16] 5.04% | viability, T/C [17] 0.27% | viability, T/C [18] 0.34% | viability, T/C [21] 7.66% | viability, T/C [22] 2.14% | viability, T/C [23] 0.12% | viability, T/C [24] 0.3% | viability, T/C [25] 1.2% | viability, T/C [26] 0.79% | viability, T/C [27] 1.52% | viability, T/C [28] 0.23% | viability, T/C [29] 0.21% | viability, T/C [30] 1.26%
133 nM: IC50 (second compound 1 µM)
145 nM: IC50 (second compound 0.316 µM)
inactive: viability, T/C [1] 82.8% | viability, T/C [2] 63.1% | viability, T/C [3] 30.3% | viability, T/C [7] 90% | viability, T/C [8] 61.4% | viability, T/C [9] 25.7% | viability, T/C [13] 62.5% | viability, T/C [14] 60.2% | viability, T/C [15] 21.3% | viability, T/C [19] 39.4% | viability, T/C [20] 25.2%
158 nM: IC50 (second compound 0.1 µM)
